Test results: publication PMC9917632, “Structural and Biochemical Analyses of the Butanol Dehydrogenase from Fusobacterium nucleatum” (International Journal of Molecular Sciences, 2023)

Assays:
[1] = molecular target: T1, FnYqdH (Fusobacterium nucleatum YqdH, butanol dehydrogenase) (Fusobacterium nucleatum, UniProt Q8R612); assay: NADPH consumption at […] nm, double reciprocal plot; assay type: biochemical; conditions: 0.1-1 mM NADPH; co-substrate butanal; Tris-HCl pH 6.0, CoSO4, 35 °C (standard assay)
T1 construct: gene FN1415; recombinant, yqdH cloned NcoI/XhoI in pPRO-EX-HTA, expressed in Escherichia coli; dimer; 384 residues modelled (CD to residue 385)
T1 sequence (Q8R612 1-385): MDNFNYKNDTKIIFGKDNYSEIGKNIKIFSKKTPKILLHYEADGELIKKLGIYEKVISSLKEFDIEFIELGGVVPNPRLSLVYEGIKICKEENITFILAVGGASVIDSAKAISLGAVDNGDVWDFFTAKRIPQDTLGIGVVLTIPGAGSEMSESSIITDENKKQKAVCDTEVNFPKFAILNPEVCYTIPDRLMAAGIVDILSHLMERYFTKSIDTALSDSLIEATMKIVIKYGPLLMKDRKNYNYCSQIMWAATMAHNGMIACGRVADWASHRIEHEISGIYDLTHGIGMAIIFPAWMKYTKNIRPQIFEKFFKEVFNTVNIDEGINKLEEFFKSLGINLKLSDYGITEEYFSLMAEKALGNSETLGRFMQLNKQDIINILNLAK

[2] = molecular target: Fusobacterium nucleatum YqdH (butanol dehydrogenase) (Fusobacterium nucleatum); assay: SEC; purified FnYqdH (500 uL of 1 mg/mL) on Superdex 200 10/300 GL; 20 mM Tris-HCl pH 8.0, 150 mM NaCl, 2 mM BME; 0.5 mL/min
[3] = molecular target: T1, FnYqdH (Fusobacterium nucleatum YqdH, butanol dehydrogenase); assay: X-ray crystal structure, […] Å, soaked crystal; conditions: soaked 1 min with 10 mM NADH and 2 mM Co2+; nucleotide-binding domain; open conformation
TmBDH = molecular target: T2, TmBDH (Thermotoga maritima, UniProt Q9WZS7); assay: NADH consumption, spectrophotometric; assay type: biochemical; conditions: metal-free enzyme reconstituted with 2 mM Zn2+, Co2+, Ni2+ or Fe3+; co-substrate butanal
T2 construct: gene TM_0820; purified protein, EDTA-treated (metal-free) then metal-reconstituted
T2 sequence (Q9WZS7 1-395): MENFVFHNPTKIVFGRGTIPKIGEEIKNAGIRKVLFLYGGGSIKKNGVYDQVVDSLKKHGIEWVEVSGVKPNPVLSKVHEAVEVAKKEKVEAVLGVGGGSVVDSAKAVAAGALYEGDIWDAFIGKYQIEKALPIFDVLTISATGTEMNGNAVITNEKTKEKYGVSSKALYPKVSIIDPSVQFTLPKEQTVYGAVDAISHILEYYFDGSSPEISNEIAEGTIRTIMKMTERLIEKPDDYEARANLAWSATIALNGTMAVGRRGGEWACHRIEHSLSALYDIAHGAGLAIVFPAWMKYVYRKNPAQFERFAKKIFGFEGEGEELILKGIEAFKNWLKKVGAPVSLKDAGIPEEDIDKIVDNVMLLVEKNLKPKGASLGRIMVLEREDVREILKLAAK

[4] = molecular target: T1, FnYqdH (Fusobacterium nucleatum YqdH, butanol dehydrogenase); assay: NADH consumption at […] nm, double reciprocal plot; assay type: biochemical; conditions: 0.1-0.5 mM NADH; co-substrate butanal; Tris-HCl pH 6.0, CoSO4, 35 °C (standard assay)

NC(=O)C1=CN([C@@H]2O[C@H](COP(=O)(O)OP(=O)(O)OC[C@H]3O[C@@H](n4cnc5c(N)ncnc54)[C@H](OP(=O)(O)O)[C@@H]3O)[C@@H](O)[C@H]2O)C=CC1 [NADPH]
apparent Km [1]: NADH is preferred over NADPH in terms of FnYqdH activity (Figure S2)

Fusobacterium nucleatum YqdH (butanol dehydrogenase) (enzyme)
stoichiometry N [2]: 2

NC(=O)C1=CN([C@@H]2O[C@H](COP(=O)(O)OP(=O)(O)OC[C@H]3O[C@@H](n4cnc5c(N)ncnc54)[C@H](O)[C@@H]3O)[C@@H](O)[C@H]2O)C=CC1 [NADH]
X-ray crystal structure, 2.72 Å, soaked crystal [3]: an electron-density map corresponding to NADH and metal ions was clearly observed
NADH consumption, spectrophotometric (TmBDH): monitoring NADH consumption for five different metal ions
apparent Km [4]: the apparent Km and Vmax values were measured with a purified protein
